The results in this text go back to patent US11667651B2, “Aminopyridine derivatives as phosphatidylinositol phosphate kinase inhibitors” (HiberCell, Inc., priority 2017, dated 2023).

Each structure is given as a SMILES string.

This experiment has as its target T1, PIP4K2A (Homo sapiens, UniProt P48426).
T1 sequence (P48426 1-406): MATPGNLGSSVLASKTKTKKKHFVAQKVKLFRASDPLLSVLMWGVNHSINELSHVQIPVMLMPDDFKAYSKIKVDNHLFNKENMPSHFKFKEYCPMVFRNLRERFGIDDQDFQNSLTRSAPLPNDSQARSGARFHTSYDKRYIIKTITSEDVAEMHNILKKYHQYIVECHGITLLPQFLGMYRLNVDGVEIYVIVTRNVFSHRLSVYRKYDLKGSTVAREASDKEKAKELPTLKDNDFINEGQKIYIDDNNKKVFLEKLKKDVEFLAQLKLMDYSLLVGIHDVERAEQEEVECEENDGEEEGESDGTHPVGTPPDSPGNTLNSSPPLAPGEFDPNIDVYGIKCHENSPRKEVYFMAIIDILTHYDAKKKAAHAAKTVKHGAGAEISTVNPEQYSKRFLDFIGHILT
As to the kind of experiment: Kinase Assay PIP4K2 A (Table 2). The class given is biochemical. Details: 4 nM PIP4K2A (full length protein, SignalChem); purchased SignalChem. The following applies: compounds listed under IC50 bins. The procedure:
Dilution series of the compounds were prepared in DMSO at 100 times the final assay concentration (n1=n0/3 in 10 points). The compounds were further diluted to three times the assay concentration in assay buffer (20 mM MOPS pH 7.2, 25 mM magnesium chloride, 0.005% Tween 20). 6 μL of the diluted compounds were added to a 384 well assay plate followed by 9 μL of a mix consisting of 4 nM PIP4K2A (full length protein, SignalChem) and 100 μM PI(5)P diC8 (Tebu-Bio). Enzyme and compounds were pre-incubated at room temperature for 15 minutes.
Then 3 μL of a solution containing 60 μM ATP (Promega) in assay buffer was added to the wells containing compound and enzyme and mixing was performed by pipetting several times. The reaction was incubated at room temperature for 1 h. Then 18 μL of ADP-Glo™ Reagent (Promega) was added to stop the kinase reaction and deplete the unconsumed ATP, mixing was performed by pipetting several times. The plate was incubated at room temperature for 40 minutes before addition of 36 μL of Kinase Detection Reagent (Promega) to convert ADP to ATP and introduce luciferase and luciferin to detect ATP. The reaction was incubated at room temperature for 40 minutes before the luminescence was measured in a in a Victor 3V 1420 multilabel counter (Perkin Elmer).
Percent inhibition of the compounds as compared to dimethyl sulfoxide treated control samples was calculated. Compound concentration versus percent inhibition were fitted to generate IC50 values.
As to `CN(C)C(=O)c1ccc(-c2ccc(Nc3cncc(C(=O)N(C)C)c3)nc2)cc1` [Example 37, 5-((5-(4-(dimethylcarbamoyl)phenyl)pyridin-2-yl)amino)-N,N-dimethylnicotinamide], the IC50 is over 1000 nM.

The compound `CN(C)C(=O)c1ccc(-c2ccc(Nc3cncc(N4CCCC4=O)c3)nc2)cc1` [Example 38, N,N-dimethyl-4-(6-((5-(2-oxopyrrolidin-1-yl)pyridin-3-yl)amino)pyridin-3-yl)benzamide] displayed an IC50 of 10 to 100 nM.

Take `COc1cncc(Nc2ccc(-c3ccc(C(=O)N(C)C)cc3)cn2)c1` [Example 39, 4-(6-((5-methoxypyridin-3-yl)amino)pyridin-3-yl)-N,N-dimethylbenzamide]: the IC50 is 100 to 1000 nM. For the compound `CN(C)C(=O)c1ccc(-c2ccc(Nc3cncc(C4(C#N)CC4)c3)nc2)cc1` [Example 40, 4-(6-((5-(1-cyanocyclopropyl)pyridin-3-yl)amino)pyridin-3-yl)-N,N-dimethylbenzamide], the IC50 lay in the range of 10 to 100 nM. Compound `CN(C)C(=O)c1ccc(-c2ccc(Nc3cncc(C4(C(N)=O)CC4)c3)nc2)cc1` [Example 41, 4-(6-((5-(1-carbamoylcyclopropyl)pyridin-3-yl)amino)pyridin-3-yl)-N,N-dimethylbenzamide] returned an IC50 of 100 to 1000 nM. Next, `CN(C)C(=O)c1ccc(-c2ccc(Nc3cnc4ccn(S(C)(=O)=O)c4c3)nc2)cc1` [Example 42, N,N-dimethyl-4-(6-((1-(methylsulfonyl)-1H-pyrrolo[3,2-b]pyridin-6-yl)amino)pyridin-3-yl)benzamide]: 10 to 100 nM.

For `CC(=O)N1CCOc2ncc(Nc3ccc(-c4ccc(C(=O)N(C)C)cc4)cn3)cc21` [Example 43, 4-(6-((1-acetyl-2,3-dihydro-1H-pyrido[2,3-b][1,4]oxazin-7-yl)amino)pyridin-3-yl)-N,N-dimethylbenzamide], the IC50 is 1 to 10 nM. `CN(C)C(=O)c1ccc(-c2ccc(Nc3cncc(N4CCOCC4=O)c3)nc2)cc1` [Example 47, N,N-dimethyl-4-(6-((5-(3-oxomorpholino)pyridin-3-yl)amino)pyridin-3-yl)benzamide] came in with an IC50 of 100 to 1000 nM.

Take `CN(C)C(=O)c1ccc(-c2ccc(Nc3cncc(CCN4CCOCC4)c3)nc2)cc1` [Example 48, N,N-dimethyl-4-(6-((5-(2-morpholinoethyl)pyridin-3-yl)amino)pyridin-3-yl)benzamide]: the IC50 lay within 100 to 1000 nM. Next, `CN(C)C(=O)c1ccc(-c2ccc(Nc3cncc(N(C)C(=O)C4CC4c4ccccc4)c3)nc2)cc1` (stereo not shown) [Example 52, N,N-dimethyl-4-(6-((5-(N-methyl-2-phenylcyclopropane-1-carboxamido)pyridin-3-yl)amino)pyridin-3-yl)benzamide]: 10 to 100 nM; `CN(C)C(=O)c1ccc(-c2ccc(Nc3cncc(N4Cc5ccccc5C4=O)c3)nc2)cc1` [Example 53, N,N-dimethyl-4-(6-((5-(1-oxoisoindolin-2-yl)pyridin-3-yl)amino)pyridin-3-yl)benzamide]: 10 to 100 nM; `CN(C)C(=O)c1ccc(-c2ccc(Nc3ccc(=O)n(Cc4ccccc4)c3)nc2)cc1` [Example 54, 4-(6-((1-benzyl-6-oxo-1,6-dihydropyridin-3-yl)amino)pyridin-3-yl)-N,N-dimethylbenzamide]: over 1000 nM.

As to `CN(C)C(=O)c1ccc(-c2ccc(Nc3cncc(CC(=O)NCc4cccnc4)c3)nc2)cc1` [Example 56, N,N-dimethyl-4-(6-((5-(2-oxo-2-((pyridin-3-ylmethyl)amino)ethyl)pyridin-3-yl)amino)pyridin-3-yl)benzamide], the IC50 lay in the range of 100 to 1000 nM. `CC(C)[C@@H]1NC(=O)N(c2cncc(Nc3ccc(-c4ccc(C(=O)N(C)C)cc4)cn3)c2)C1=O` [Example 57, (S)-4-(6-((5-(4-isopropyl-2,5-dioxoimidazolidin-1-yl)pyridin-3-yl)amino)pyridin-3-yl)-N,N-dimethylbenzamide] showed an IC50 of 100 to 1000 nM.

Turning to `CN(C)S(=O)(=O)c1ccc(-c2ccc(Nc3cccnc3)nc2)cc1` [Example 63, N,N-dimethyl-4-(6-(pyridin-3-ylamino)pyridin-3-yl)benzenesulfonamide], the IC50 lay in the range of 100 to 1000 nM. Take `CC(=O)N(C)c1ccc(-c2ccc(Nc3cccnc3)nc2)cc1` [Example 64, N-methyl-N-(4-(6-(pyridin-3-ylamino)pyridin-3-yl)phenyl)acetamide]: the IC50 is over 1000 nM. The compound `Cn1cnnc1-c1ccc(-c2ccc(Nc3cccnc3)nc2)cc1` [Example 65, 5-(4-(4-methyl-4H-1,2,4-triazol-3-yl)phenyl)-N-(pyridin-3-yl)pyridin-2-amine] displayed an IC50 of 100 to 1000 nM.

`O=C(c1ccc(-c2ccc(Nc3cccnc3)nc2)cc1)N1CCCC1` [Example 66, (4-(6-(pyridin-3-ylamino)pyridin-3-yl)phenyl)(pyrrolidin-1-yl)methanone] gave a half-inhibitory concentration (IC50) of over 1000 nM.

`CN(Cc1ccccc1)C(=O)c1ccc(-c2ccc(Nc3cccnc3)nc2)cc1` [Example 67, N-benzyl-N-methyl-4-(6-(pyridin-3-ylamino)pyridin-3-yl)benzamide] yielded an IC50 of 100 to 1000 nM. Take `CCN(C)C(=O)c1ccc(-c2ccc(Nc3cccnc3)nc2)cc1` [Example 68, N-ethyl-N-methyl-4-(6-(pyridin-3-ylamino)pyridin-3-yl)benzamide]: the IC50 fell in the range of 100 to 1000 nM. Turning to `CN(Cc1ccco1)C(=O)c1ccc(-c2ccc(Nc3cccnc3)nc2)cc1` [Example 69, N-(furan-2-ylmethyl)-N-methyl-4-(6-(pyridin-3-ylamino)pyridin-3-yl)benzamide], the IC50 was in the range of 100 to 1000 nM. The compound `CN(Cc1cccnc1)C(=O)c1ccc(-c2ccc(Nc3cccnc3)nc2)cc1` [Example 70, N-methyl-4-(6-(pyridin-3-ylamino)pyridin-3-yl)-N-(pyridin-3-ylmethyl)benzamide] registered an IC50 of over 1000 nM.

`CN(C)C(=O)c1ccc(-c2ccc(Nc3cncc(N4CCN(C)C4=O)c3)nc2)cc1` [Example 72, N,N-dimethyl-4-(6-((5-(3-methyl-2-oxoimidazolidin-1-yl)pyridin-3-yl)amino)pyridin-3-yl)benzamide]: the IC50 lay in the range of 10 to 100 nM.

As to `COc1ccc(CN2CCN(c3cncc(Nc4ccc(-c5ccc(C(=O)N(C)C)cc5)cn4)c3)C2=O)cc1` [Example 74, 4-(6-((5-(3-(4-methoxybenzyl)-2-oxoimidazolidin-1-yl)pyridin-3-yl)amino)pyridin-3-yl)-N,N-dimethylbenzamide], the IC50 lay within 1 to 10 nM. Compound `CN(C)C(=O)c1ccc(-c2ccc(Nc3cncc(N4CCNC4=O)c3)nc2)cc1` [Example 75, N,N-dimethyl-4-(6-((5-(2-oxoimidazolidin-1-yl)pyridin-3-yl)amino)pyridin-3-yl)benzamide] yielded an IC50 of 10 to 100 nM. As for `CN(C)C(=O)c1ccc(-c2ccc(Nc3cncc(N4CCN(Cc5cccnc5)C4=O)c3)nc2)cc1` [Example 76, N,N-dimethyl-4-(6-((5-(2-oxo-3-(pyridin-3-ylmethyl)imidazolidin-1-yl)pyridin-3-yl)amino)pyridin-3-yl)benzamide], the IC50 was in the range of 1 to 10 nM. Next, `CN(C)C(=O)c1ccc(-c2ccc(Nc3cncc(N4CCN(CC5CCCO5)C4=O)c3)nc2)cc1` (stereo not shown) [Example 77, N,N-dimethyl-4-(6-((5-(2-oxo-3-((tetrahydrofuran-2-yl)methyl)imidazolidin-1-yl)pyridin-3-yl)amino)pyridin-3-yl)benzamide]: 10 to 100 nM; `CN(C)C(=O)c1ccc(-c2ccc(Nc3cncc(N4CCN(Cc5cscn5)C4=O)c3)nc2)cc1` [Example 78, N,N-dimethyl-4-(6-((5-(2-oxo-3-(thiazol-4-ylmethyl)imidazolidin-1-yl)pyridin-3-yl)amino)pyridin-3-yl)benzamide]: 1 to 10 nM. Next, `CN(C)C(=O)c1ccc(-c2ccc(Nc3cncc(N4CCN(CC5CC5)C4=O)c3)nc2)cc1` [Example 79, 4-(6-((5-(3-(cyclopropylmethyl)-2-oxoimidazolidin-1-yl)pyridin-3-yl)amino)pyridin-3-yl)-N,N-dimethylbenzamide]: 10 to 100 nM; `O=C1CCCN1c1ccc(-c2ccc(Nc3cccnc3)nc2)cc1` [Example 82, 1-(4-(6-(pyridin-3-ylamino)pyridin-3-yl)phenyl)pyrrolidin-2-one]: 100 to 1000 nM; `CN(C)C(=O)c1ccc(-c2ccc(Nc3cnc4c(c3)N(S(C)(=O)=O)CCO4)nc2)cc1` [Example 217, N,N-dimethyl-4-(6-((1-(methylsulfonyl)-2,3-dihydro-1H-pyrido[2,3-b][1,4]oxazin-7-yl)amino)pyridin-3-yl)bnzamide]: 10 to 100 nM.
